Measurements as given in ChEMBL document CHEMBL4699592, “Nature-Inspired (di)Azine-Bridged Bisindole Alkaloids with Potent Antibacterial In Vitro and In Vivo Efficacy against Methicillin-Resistant Staphylococcus aureus” (J Med Chem, 2020).
Converted amounts (≈) assume the structure as drawn. The source made the active and inactive calls. No cut-off for these calls is given here.

Key:
Acinetobacter baumannii [1] = assay: Antibacterial activity against Acinetobacter baumannii ATCC BAA-1605 at 0.78 to 100 uM after 24 hrs by broth microdilution method; assay type: functional, organism-based; settings: dose microM 0.78-100, time 24.0 hrs
[2] = system: Mycobacterium tuberculosis; assay: Antibacterial activity against Mycobacterium tuberculosis H37Rv at 0.78 to 100 uM after 5 days by resazurin dye based fluorescence assay; assay type: functional, organism-based; settings: dose microM 0.78-100, time 5.0 day
Staphylococcus aureus [3] = assay: Antibacterial activity against […] Staphylococcus aureus ATCC 700699 after 24 hrs by broth microdilution method; assay type: functional
Pseudomonas aeruginosa = assay: Antibacterial activity against Pseudomonas aeruginosa ATCC 27853 measured after 24 hrs by broth microdilution method; assay type: functional
Acinetobacter baumannii [4] = assay: Antibacterial activity against Acinetobacter baumannii ATCC BAA-1605 after 24 hrs by broth microdilution method; assay type: functional
Escherichia coli = assay: Antimicrobial activity against Escherichia coli ATCC BAA 2469 after 24 hrs by broth microdilution assay; assay type: functional
Klebsiella pneumoniae = assay: Antibacterial activity against Klebsiella pneumoniae ATCC 700603 after 24 hrs by broth microdilution method; assay type: functional
Cell membrane [5] = assay: Induction of cell membrane permeabilization in methicillin resistant Staphylococcus aureus ATCC 700699 measured at 5 mins interval for 2 hrs by propidium iodide staining based fluorescence assay; assay type: subcellular
Cell membrane [6] = assay: Induction of cell membrane permeabilization in GFP-expressing Staphylococcus aureus ATCC 700699 assessed as increase in cellular ATP leakage at 5 fold MIC measured after 0.5 hrs by Bactiter-glo assay; assay type: subcellular
[7] = Selectivity index, ratio of IC50 for cytotoxicity against human THP-1 cells to MIC90 for antibacterial activity against […] Staphylococcus aureus ATCC 700699; assay type: toxicity, cell-based; settings: read-out: Selectivity Index
MRC5 = assay: Cytotoxicity against human MRC5 cells assessed as reduction in cell viability at >=12.5 uM measured after 48 hrs by resazurin dye based fluorescence assay; settings: mrc5, 48 h
THP-1 = assay: Cytotoxicity against human THP-1 cells assessed as reduction in cell viability at >=12.5 uM measured after 48 hrs by resazurin dye based fluorescence assay; settings: thp-1, 48 h
Enterococcus faecium [8] = assay: Antibacterial activity against vancomycin-resistant Enterococcus faecium ATCC 35667 at 0.78 to 100 uM after 24 hrs by broth microdilution method; assay type: functional, organism-based; settings: dose microM 0.78-100, time 24.0 hrs
Enterococcus faecium [9] = assay: Antibacterial activity against vancomycin-resistant Enterococcus faecium ATCC 700221 at 0.78 to 100 uM after 24 hrs by broth microdilution method; assay type: functional, organism-based; settings: dose microM 0.78-100, time 24.0 hrs
Enterococcus faecalis [10] = assay: Antibacterial activity against Enterococcus faecalis ATCC 51299 at 0.78 to 100 uM after 24 hrs by broth microdilution method; assay type: functional, organism-based; settings: dose microM 0.78-100, time 24.0 hrs
Enterococcus faecalis [11] = assay: Antibacterial activity against Enterococcus faecalis ATCC 29212 at 0.78 to 100 uM after 24 hrs by broth microdilution method; assay type: functional, organism-based; settings: dose microM 0.78-100, time 24.0 hrs
Staphylococcus aureus [12] = assay: Antibacterial activity against methicillin susceptible Staphylococcus aureus ATCC 25923 at 0.78 to 100 uM after 24 hrs by broth microdilution method; assay type: functional, organism-based; settings: dose microM 0.78-100, time 24.0 hrs
[13] = Selectivity index, ratio of IC50 for cytotoxicity against human MRC5 cells to MIC90 for antibacterial activity against […] Staphylococcus aureus ATCC 700699; assay type: toxicity, cell-based; settings: read-out: Selectivity Index
HEK293 = assay: Cytotoxicity against HEK293 cells assessed as reduction in cell viability at >12.5 uM measured after 48 hrs by resazurin dye based fluorescence assay; settings: human, hek293, 48 h
HepG2 = assay: Cytotoxicity against human HepG2 cells assessed as reduction in cell viability at >12.5 uM measured after 48 hrs by resazurin dye based fluorescence assay; settings: hepg2, 48 h
[14] = Cytotoxicity against human CLS-54 cells assessed as reduction in cell viability at >12.5 uM measured after 48 hrs by resazurin dye based fluorescence assay; settings: cls-54, 48 h
Staphylococcus aureus [15] = assay: Bactericidal activity against […] Staphylococcus aureus ATCC 700699 assessed as reduction in bacterial viability at 5 fold MIC incubated for 6 hrs by time kill assay relative to control; assay type: functional
Staphylococcus aureus [16] = assay: Bactericidal activity against […] Staphylococcus aureus ATCC 700699 assessed as colony forming units at 5 fold MIC measured after 24 hrs by time kill assay; assay type: functional
Staphylococcus aureus [17] = assay: Antibacterial activity against methicillin-resistant Staphylococcus aureus USA300 LAC at 0.15 to 25 uM incubated for 24 hrs under low glucose medium by resazurin dye based fluorescence assay; assay type: functional, organism-based; settings: dose microM 0.15-25, time 24.0 hrs
Staphylococcus aureus [18] = assay: Antibacterial activity against methicillin-resistant Staphylococcus aureus USA300 LAC at 0.15 to 25 uM incubated for 24 hrs under low pyruvate containing medium by resazurin dye based fluorescence assay; assay type: functional, organism-based; settings: dose microM 0.15-25, time 24.0 hrs
Staphylococcus aureus [19] = assay: Antibacterial activity against methicillin-resistant pyruvate kinase deficient Staphylococcus aureus USA300 LAC at 0.15 to 25 uM incubated for 24 hrs under low pyruvate containing medium by resazurin dye based fluorescence assay; assay type: functional, organism-based; settings: dose microM 0.15-25, time 24.0 hrs
Staphylococcus aureus [20] = assay: Inhibition of Staphylococcus aureus ATCC 700699 N-terminal His6-tagged pyruvate kinase expressed in Escherichia coli NiCo21(DE3) at 12.5 uM using phosphoenolpyruvate as substrate measured for 5 mins by LDH-coupled assay
[21] = target: Pyruvate kinase PKM (Oryctolagus cuniculus) (UniProt P11974); assay: Inhibition of rabbit muscle pyruvate kinase up to 12.5 uM using phosphoenolpyruvate as substrate measured for 5 mins by LDH-coupled assay; settings: dose microM <=12.5, time 5.0 min
[22] = Solubility of compound in pH 7.7 PBS buffer; assay type: physicochemical
Staphylococcus aureus [23] = assay: Antibacterial activity against vancomycin-sensitive Staphylococcus aureus T144 infected in Balb/c mouse assessed as reduction in bacterial burden at 20 mg/kg applied topically measured after 12 days by colony counting method; assay type: functional, organism-based; settings: time 12.0 day
Staphylococcus aureus [24] = assay: Antibacterial activity against vancomycin-sensitive Staphylococcus aureus T144 infected in Balb/c mouse assessed as increase in wound healing at 20 mg/kg applied topically measured daily for 12 days by microscopic analysis; assay type: functional, organism-based; settings: time 12.0 day
Staphylococcus aureus [25] = assay: Antibacterial activity against vancomycin-sensitive Staphylococcus aureus T144 infected in Balb/c mouse peritonitis-sepsis model assessed as increase in survival at 20 mg/kg, ip measured for 48 hrs; assay type: functional, organism-based
Staphylococcus aureus [26] = assay: Bactericidal activity against […] Staphylococcus aureus ATCC 700699 assessed as colony forming unit at 5 fold MIC incubated for 6 hrs followed by compound washout and subsequent compound addition by time kill assay; assay type: functional
[27] = Stability of compound in pH 7.7 DMSO:PBS solution at 0.19 uM measured after 6 hrs; assay type: physicochemical; settings: buffer, pH 7.7, 6 h

Chain of Pyruvate kinase PKM (Oryctolagus cuniculus) (P11974 whole entry): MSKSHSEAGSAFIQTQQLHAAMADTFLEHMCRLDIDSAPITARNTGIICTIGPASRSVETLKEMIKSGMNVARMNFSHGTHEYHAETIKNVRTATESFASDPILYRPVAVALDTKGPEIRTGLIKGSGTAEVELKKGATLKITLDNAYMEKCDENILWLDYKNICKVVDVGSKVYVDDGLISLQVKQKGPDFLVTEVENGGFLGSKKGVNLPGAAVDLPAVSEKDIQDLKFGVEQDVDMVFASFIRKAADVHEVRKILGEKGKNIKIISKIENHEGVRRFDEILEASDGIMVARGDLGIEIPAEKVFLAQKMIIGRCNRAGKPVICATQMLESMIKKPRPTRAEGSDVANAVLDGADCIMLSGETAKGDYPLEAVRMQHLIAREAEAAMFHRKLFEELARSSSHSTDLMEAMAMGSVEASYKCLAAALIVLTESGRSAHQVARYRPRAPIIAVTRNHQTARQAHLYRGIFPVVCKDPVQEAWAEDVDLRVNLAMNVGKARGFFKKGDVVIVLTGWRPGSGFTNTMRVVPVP

With `c1ccc2c(-c3ccc(-c4c[nH]c5ccccc45)nn3)c[nH]c2c1` the Activity (Acinetobacter baumannii [1]) was “inactive”, the Activity [2] was “inactive” and the MIC90 (Staphylococcus aureus [3]) was > 100 µM.

For `Brc1ccc2c(-c3cnc(-c4c[nH]c5cc(Br)ccc45)cn3)c[nH]c2c1`, the Activity (Acinetobacter baumannii [1]) was “inactive”, the Activity [2] was “inactive” and the MIC90 (Staphylococcus aureus [3]) was > 100 µM.

In the case of COLISTIN, the MIC (Pseudomonas aeruginosa) is reported as 390 nM, the MIC (Acinetobacter baumannii [4]) is reported as 780 nM and the MIC (Escherichia coli) is reported as 780 nM. The MIC (Klebsiella pneumoniae) was 1560 nM.

For `Fc1ccc2[nH]cc(-c3cnc(-c4c[nH]c5ccc(F)cc45)nc3)c2c1`, the Activity (Acinetobacter baumannii [1]) was “inactive”, the Activity [2] was “inactive” and the MIC90 (Staphylococcus aureus [3]) was 12.5 µM (≈ 4.33 µg/mL).

With `COc1c(N2C[C@@H]3CCCN[C@@H]3C2)c(F)cc2c(=O)c(C(=O)O)cn(C3CC3)c12` the Activity (Cell membrane [5]) was “inactive” and the Activity (Cell membrane [6]) was “inactive”.

For `Clc1ccc2[nH]cc(-c3ccnc(-c4c[nH]c5ccc(Cl)cc45)n3)c2c1`, the selectivity ratio [7] was 32, the Activity (MRC5) was “Toxic” and the Activity (THP-1) was “Toxic”. The Activity (Enterococcus faecium [8]) was “Active”, the Activity (Enterococcus faecium [9]) was “Active” and the Activity (Enterococcus faecalis [10]) was “Active”. For the same compound, the Activity (Enterococcus faecalis [11]) was “Active”, the Activity (Acinetobacter baumannii [1]) was “Active” and the Activity [2] was “Active”. For the same compound, the Activity (Staphylococcus aureus [12]) was “Active”, the MIC90 (Staphylococcus aureus [3]) was 3.13 µM (≈ 1.19 µg/mL) and the selectivity ratio [13] was 32. The Activity (HEK293) was “Toxic”, the Activity (HepG2) was “Toxic” and the Activity [14] was “Toxic”. For the same compound, the “fold change (FC)” value (Staphylococcus aureus [15]) was 10000, the Activity (Staphylococcus aureus [16]) was <10 CFU/ml and the Activity (Staphylococcus aureus [17]) was “Active”. For the same compound, the Activity (Staphylococcus aureus [18]) was “Active”, the Activity (Staphylococcus aureus [19]) was “Active” and the inhibition (Staphylococcus aureus [20]) was “inactive”. The inhibition [21] was “inactive”.

For `Clc1ccc2[nH]cc(-c3cncc(-c4c[nH]c5ccc(Cl)cc45)n3)c2c1`, the Activity (Acinetobacter baumannii [1]) was “inactive”, the Activity [2] was “inactive” and the MIC90 (Staphylococcus aureus [3]) was 0.39 µM (≈ 0.148 µg/mL). For the same compound, the solubility [22] was “Insoluble”.

With `Oc1ccc2[nH]cc(-c3cnc(-c4c[nH]c5ccc(O)cc45)nc3)c2c1` [HYRTINADINE A] the Activity (Enterococcus faecium [8]) was “inactive”, the Activity (Enterococcus faecium [9]) was “inactive” and the Activity (Enterococcus faecalis [10]) was “inactive”. The Activity (Enterococcus faecalis [11]) was “inactive”, the Activity (Acinetobacter baumannii [1]) was “inactive” and the Activity [2] was “inactive”. The Activity (Staphylococcus aureus [12]) was “inactive” and the MIC90 (Staphylococcus aureus [3]) was > 100 µM.

With `CN[C@H](CC(C)C)C(=O)N[C@H]1C(=O)N[C@@H](CC(N)=O)C(=O)N[C@H]2C(=O)N[C@H]3C(=O)N[C@H](C(=O)N[C@H](C(=O)O)c4cc(O)cc(O)c4-c4cc3ccc4O)[C@H](O)c3ccc(c(Cl)c3)Oc3cc2cc(c3O[C@@H]2O[C@H](CO)[C@@H](O)[C@H](O)[C@H]2O[C@H]2C[C@](C)(N)[C@H](O)[C@H](C)O2)Oc2ccc(cc2Cl)[C@H]1O` the Activity (Staphylococcus aureus [23]) was “Active”, the Activity (Staphylococcus aureus [24]) was “Active” and the Activity (Staphylococcus aureus [25]) was “Active”.

For `COc1ccc2[nH]cc(-c3cnc(-c4c[nH]c5ccc(OC)cc45)nc3)c2c1`, the Activity (Enterococcus faecium [8]) was “inactive”, the Activity (Enterococcus faecium [9]) was “inactive” and the Activity (Enterococcus faecalis [10]) was “inactive”. The Activity (Enterococcus faecalis [11]) was “inactive”, the Activity (Acinetobacter baumannii [1]) was “inactive” and the Activity [2] was “inactive”. The Activity (Staphylococcus aureus [12]) was “inactive” and the MIC90 (Staphylococcus aureus [3]) was 50 µM (≈ 18.5 µg/mL).

In the case of `Clc1ccc2[nH]cc(-c3cnc(-c4c[nH]c5ccc(Cl)cc45)cn3)c2c1`, the selectivity ratio [7] is reported as 32, the Activity (MRC5) is reported as “Toxic” and the Activity (THP-1) is reported as “Toxic”. The Activity (Acinetobacter baumannii [1]) was “inactive”, the Activity [2] was “inactive” and the MIC90 (Staphylococcus aureus [3]) was 0.39 µM (≈ 0.148 µg/mL). For the same compound, the solubility [22] was “Insoluble”, the selectivity ratio [13] was 32 and the “fold change (FC)” value (Staphylococcus aureus [15]) was 100. The Activity (Staphylococcus aureus [16]) was 100 CFU/ml, the Activity (Staphylococcus aureus [26]) was 100 CFU/ml and the Stabilty [27] was “Stable”.

For `c1ccc2c(-c3cnc(-c4c[nH]c5ccccc45)nc3)c[nH]c2c1`, the Activity (Acinetobacter baumannii [1]) was “inactive”, the Activity [2] was “inactive” and the MIC90 (Staphylococcus aureus [3]) was 12.5 µM (≈ 3.88 µg/mL).
